Values after ≈ are worked out from the molar mass of the structure shown.
Key:
[1] = system: carbapenem sensitive Escherichia coli; test: MIC by broth micro-dilution (CLSI), carbapenem sensitive E. coli; assay type: cell-based; details: Escherichia coli, ATCC25922, ESBL −ve E. coli ATCC25922; read-out: MIC
[2] = system: carbapenem sensitive Pseudomonas aeruginosa; test: MIC by broth micro-dilution (CLSI), carbapenem sensitive P. aeruginosa; assay type: cell-based; details: Pseudomonas aeruginosa, ATCC27853, Meropenem susceptible P. aeruginosa ATCC27853; read-out: MIC
[3] = system: extended spectrum β lactamase (ESBL) SHV18 producing Klebsiella pneumoniae; test: MIC by broth micro-dilution (CLSI), ESBL SHV18 producing K. pneumoniae; assay type: cell-based; details: Klebsiella pneumoniae, ATCC700603, 22 h, ESBL +ve (SHV-18) K. pneumoniae ATCC700603; read-out: MIC
[4] = system: methicillin-sensitive Staphylococcus aureus; test: MIC by broth micro-dilution (CLSI), methicillin-sensitive S. aureus; assay type: cell-based; details: Staphylococcus aureus, ATCC 29213 / MSSA, MSSA S. aureus ATCC29213; read-out: MIC
[5] = system: carbapenemase producing K. pneumoniae; test: MIC by broth micro-dilution (CLSI), carbapenemase producing K. pneumoniae; assay type: cell-based, Klebsiella pneumoniae; details: Klebsiella pneumoniae, ATCCBAA1705, KPC-2 K. pneumoniae ATCC BAA-1705; read-out: MIC

MIC [1] [µg/mL]	MIC [2] [µg/mL]	MIC [3] [µg/mL]	MIC [4] [µg/mL]	MIC [5] [µg/mL]	Structure (SMILES)
0.25 (≈ 0.498 µM)	4 (≈ 7.97 µM)	4 (≈ 7.97 µM)	8 (≈ 15.9 µM)	4 (≈ 7.97 µM)	C[C@@H](NS(C)(=O)=O)[C@H]1C(=O)N2C(C(=O)O)=C(S[C@@H]3CN[C@H](C(=O)N4CCC(N)C4)C3)[C@H](C)[C@H]12 (stereo in doubt) [Example 362, (4R,5S,6S)-3-((3S,5S)-5-((R)-3-aminopyrrolidine-1-carbonyl)pyrrolidin-3-ylthio)-4-methyl-6-((R)-1-(methylsulfonamido)ethyl)-7-oxo-1-azabicyclo[3.2.0]hept-2-ene-2-carboxylic acid]
4 (≈ 8.38 µM)	> 128	8 (≈ 16.8 µM)	64 (≈ 134 µM)	8 (≈ 16.8 µM)	CNCc1cn([C@H](C)[C@H]2C(=O)N3C(C(=O)O)=C(SC4CN[C@H](C(=O)N(C)C)C4)[C@H](C)[C@H]23)nn1 (some centres unmarked) [Example 208]
0.5 (≈ 0.97 µM)	> 128	4 (≈ 7.76 µM)	0.5 (≈ 0.97 µM)	4 (≈ 7.76 µM)	COCc1cn([C@H](C)[C@H]2C(=O)N3C(C(=O)O)=C(S[C@@H]4CN[C@H](CNS(N)(=O)=O)C4)[C@H](C)[C@H]23)nn1 [Example 234]
8 (≈ 19.4 µM)	> 128	128 (≈ 311 µM)	1 (≈ 2.43 µM)	64 (≈ 156 µM)	C[C@@H](NC(=O)C(F)F)[C@H]1C(=O)N2C(C(=O)O)=C(SCc3ccncc3)[C@H](C)[C@H]12 [Example 97]
4 (≈ 8.07 µM)	> 128	16 (≈ 32.3 µM)	16 (≈ 32.3 µM)	4 (≈ 8.07 µM)	CC(C)C[C@H](N)C(=O)N[C@H](C)[C@H]1C(=O)N2C(C(=O)O)=C(S[C@@H]3CN[C@H](C(=O)N(C)C)C3)[C@H](C)[C@H]12 [Example 31]
4 (≈ 7.68 µM)	32 (≈ 61.5 µM)	16 (≈ 30.7 µM)	16 (≈ 30.7 µM)	16 (≈ 30.7 µM)	C[C@@H](NC(=O)CNC1CC1)[C@H]1C(=O)N2C(C(=O)O)=C(S[C@@H]3CN[C@H](C(=O)N4CC[C@@H](N)C4)C3)[C@H](C)[C@H]12 [Example 197]
2 (≈ 4.44 µM)	128 (≈ 284 µM)	8 (≈ 17.8 µM)	4 (≈ 8.88 µM)	64 (≈ 142 µM)	C[C@@H](Oc1ccon1)[C@H]1C(=O)N2C(C(=O)O)=C(S[C@@H]3CN[C@H](C(=O)N(C)C)C3)[C@H](C)[C@H]12 [Example 187]
1 (≈ 2.11 µM)	> 128	16 (≈ 33.7 µM)	1 (≈ 2.11 µM)	16 (≈ 33.7 µM)	C[C@@H](NC(=O)C(C)(F)F)[C@H]1C(=O)N2C(C(=O)O)=C(S[C@@H]3CN[C@H](C(=O)N(C)C)C3)[C@H](C)[C@H]12 [Example 61]
2 (≈ 4.38 µM)	128 (≈ 280 µM)	16 (≈ 35 µM)	1 (≈ 2.19 µM)	16 (≈ 35 µM)	COC(=S)N[C@H](C)[C@H]1C(=O)N2C(C(=O)O)=C(S[C@@H]3CN[C@H](C(=O)N(C)C)C3)[C@H](C)[C@H]12 [Example 36]
4 (≈ 7.65 µM)	> 128	64 (≈ 122 µM)	8 (≈ 15.3 µM)	32 (≈ 61.2 µM)	C[C@@H](NS(=O)(=O)c1ccccc1)[C@H]1C(=O)N2C(C(=O)O)=C(S[C@@H]3CN[C@H](C(=O)N(C)C)C3)[C@H](C)[C@H]12 [Example 11]
1 (≈ 1.94 µM)	4 (≈ 7.76 µM)	4 (≈ 7.76 µM)	2 (≈ 3.88 µM)	4 (≈ 7.76 µM)	C[C@@H](NC(=O)C(F)F)[C@H]1C(=O)N2C(C(=O)O)=C(S[C@@H]3CN[C@H](C(=O)N4CCC(N)CC4)C3)[C@H](C)[C@H]12 [Example 132]
2 (≈ 3.76 µM)	16 (≈ 30.1 µM)	8 (≈ 15 µM)	2 (≈ 3.76 µM)	8 (≈ 15 µM)	C[C@@H](NC(=O)C(F)F)[C@H]1C(=O)N2C(C(=O)O)=C(S[C@@H]3CN[C@H](C(=O)N4CCO[C@H](CN)C4)C3)[C@H](C)[C@H]12 [Example 126]
2 (≈ 3.4 µM)	32 (≈ 54.4 µM)	16 (≈ 27.2 µM)	4 (≈ 6.8 µM)	8 (≈ 13.6 µM)	CNCC(=O)NO[C@H]1CCN(C(=O)[C@@H]2C[C@H](SC3=C(C(=O)O)N4C(=O)[C@H]([C@@H](C)NC(=O)C(F)F)[C@H]4[C@H]3C)CN2)C1 [Example 151]

— patent publication US11180504B2 (ORCHID PHARMA LTD., priority 2016, dated 2021)
